How the values were obtained:
[1] = target: T1, Neutrophil elastase (Homo sapiens, UniProt P08246); experiment: Inhibitory activity was evaluated against human leukocyte elastase; Inactive
T1 sequence (P08246 whole entry): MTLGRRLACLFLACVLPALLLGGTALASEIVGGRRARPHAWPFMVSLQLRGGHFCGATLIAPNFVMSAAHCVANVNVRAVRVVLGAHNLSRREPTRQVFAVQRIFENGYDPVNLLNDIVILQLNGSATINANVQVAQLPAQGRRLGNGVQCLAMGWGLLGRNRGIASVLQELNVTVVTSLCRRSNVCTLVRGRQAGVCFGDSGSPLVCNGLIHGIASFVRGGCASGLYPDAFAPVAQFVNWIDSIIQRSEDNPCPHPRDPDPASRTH

[2] = target: T1, Neutrophil elastase; experiment: Inhibitory activity was evaluated against human leukocyte elastase

IC50 [1] | IC50 [2] | Structure (SMILES)
Not Active | – | CCCc1cc(O)cc(=O)o1
– | 35.8 µM | CCCCCCCCCCCCCCCC(=O)c1c(O)cc(C)oc1=O
– | 1620 µM | CCCCCCC(CCCC)c1cc(O)cc(=O)o1 (stereo not drawn)
Not Active | – | CCCCc1cc(O)cc(=O)o1
– | 153 µM | CCCCCCCCCCCc1cc(O)cc(=O)[nH]1
Not Active | – | CCCCCCCc1cc(O)cc(O)n1
Not Active | – | CCCC(=O)c1c(O)cc(C)oc1=O
Not Active | – | CCC(=O)c1c(O)cc(C)oc1=O
Not Active | – | CCCCCCCc1cc(O)cc(=O)o1
– | 3150 µM | CCCCCCCCCCCc1cc(O)cc(=O)o1
Not Active | – | CCCCCC(=O)c1c(O)cc(C)oc1=O
Not Active | – | CCCCCc1cc(O)cc(=O)o1
– | 26.8 µM | CCCCCCCCCCCC(=O)c1c(O)cc(C)oc1=O

— ChEMBL document CHEMBL1122919, “Substituted 2-pyrones, 2-pyridones, and other congeners of elasnin as potential agents for the treatment of chronic obstructive lung diseases” (J Med Chem, 1985)
